Laboratory results: article PMC9403976, “Elucidating the path to Plasmodium prolyl-tRNA synthetase inhibitors that overcome halofuginone resistance” (Nature Communications, 2022)
“And” between values parts separate entries of the source, which are not always exact repeats. Equal entries are not always repeated. Where two headings read alike, the source gives them in different places.

Legend:
P. falciparum Dd2-2D4 = experiment: P. falciparum asexual blood stage (ABS) growth assay, SYBR Green, 72 h, wild-type parasites; format: cell-based, Plasmodium falciparum; conditions: for ABS growth dose-response, normalized signal (Replicates 1-3): Dd2-2D4
[1] = test system: halofuginone-induced P. falciparum (elevated proline homeostasis); experiment: P. falciparum ABS growth assay, SYBR Green, 72 h, halofuginone-induced parasites; format: cell-based, Plasmodium falciparum; conditions: Halofuginone-Induced (HFG-Induced)
Outline: (§1)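 EC50 came from SYBR Green 1 fluorescence measured 72 h after dosing in triplicate dose-response. Dihydroartemisinin at 10 μM set full kill and untreated wells set full growth. Cultures of the Dd2 lines were seeded at 1% hematocrit and 1% parasitemia in Albumax-supplemented RPMI.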

[2] = test system: HFGR-I P. falciparum (elevated proline homeostasis and PfcProRS^L482H); experiment: P. falciparum ABS growth assay, SYBR Green, 72 h, HFGR-I parasites; format: cell-based, Plasmodium falciparum; conditions: HFGR-I
Outline: as §1

PfcProRS = biological target: T1, PfcProRS (Plasmodium falciparum, UniProt Q8I5R7); format: binding; conditions: for dose-response signal (normalized), SI Fig 8: single replicates
T1 construct: made in house; host or cells: E. coli SoluBL-21
T1 sequence (Q8I5R7 249-746): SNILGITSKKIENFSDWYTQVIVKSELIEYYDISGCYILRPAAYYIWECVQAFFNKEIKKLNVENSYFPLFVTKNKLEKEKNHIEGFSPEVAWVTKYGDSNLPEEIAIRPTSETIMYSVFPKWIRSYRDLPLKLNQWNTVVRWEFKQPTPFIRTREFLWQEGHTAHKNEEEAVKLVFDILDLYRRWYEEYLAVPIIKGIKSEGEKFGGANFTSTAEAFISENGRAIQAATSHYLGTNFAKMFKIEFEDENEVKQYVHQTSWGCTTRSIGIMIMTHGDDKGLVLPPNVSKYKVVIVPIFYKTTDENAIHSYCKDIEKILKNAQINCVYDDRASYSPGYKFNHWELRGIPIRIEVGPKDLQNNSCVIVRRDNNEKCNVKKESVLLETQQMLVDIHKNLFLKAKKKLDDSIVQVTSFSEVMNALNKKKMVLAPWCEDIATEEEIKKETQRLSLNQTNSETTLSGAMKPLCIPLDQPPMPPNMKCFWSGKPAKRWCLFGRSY

HsProRS = HsProRS (Homo sapiens, UniProt P07814); experiment: TR-FRET ligand displacement assay with tracer MAT379 (CoraFluor-1-Halo and anti-His6 antibody formats); format: binding; parameters: made in house; host or cells: E. coli SoluBL-21; conditions: for TR-FRET dose-response, normalized signal (SI Fig 11): individual replicates
HsProRS, sequence (P07814 996-1512): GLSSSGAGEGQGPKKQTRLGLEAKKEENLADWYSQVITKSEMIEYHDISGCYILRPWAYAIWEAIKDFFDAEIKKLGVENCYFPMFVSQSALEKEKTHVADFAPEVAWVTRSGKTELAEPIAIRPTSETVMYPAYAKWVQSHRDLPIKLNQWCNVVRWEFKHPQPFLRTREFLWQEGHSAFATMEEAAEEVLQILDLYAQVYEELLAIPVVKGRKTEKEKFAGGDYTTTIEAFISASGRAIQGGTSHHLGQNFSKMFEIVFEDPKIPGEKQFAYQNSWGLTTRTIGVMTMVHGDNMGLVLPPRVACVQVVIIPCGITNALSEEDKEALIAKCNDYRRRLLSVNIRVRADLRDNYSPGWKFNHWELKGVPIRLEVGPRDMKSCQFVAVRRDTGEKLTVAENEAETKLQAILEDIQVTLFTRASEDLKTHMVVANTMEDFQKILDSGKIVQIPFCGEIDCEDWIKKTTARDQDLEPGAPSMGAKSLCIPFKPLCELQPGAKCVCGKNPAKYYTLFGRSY

CC(C)(C)OC(=O)NC1CCN(C(=O)Nc2nccnc2C(=O)NC2Cc3ccccc3C2)CC1 [compound 7]
ABS growth dose-response, normalized signal (Replicates 1-3) (P. falciparum Dd2-2D4; Log[inhibitor] (M) -5.000): 1
ABS growth dose-response, normalized signal (Replicates 1-3) (P. falciparum Dd2-2D4; Log[inhibitor] (M) -5.301): 1
ABS growth dose-response, normalized signal (Replicates 1-3) (P. falciparum Dd2-2D4; Log[inhibitor] (M) -5.602): 1
ABS growth dose-response, normalized signal (Replicates 1-3) (P. falciparum Dd2-2D4; Log[inhibitor] (M) -5.903): 1
ABS growth dose-response, normalized signal (Replicates 1-3) (P. falciparum Dd2-2D4; Log[inhibitor] (M) -6.505): 1
EC50 (P. falciparum Dd2-2D4; Plasmodium falciparum, DD2, SI Fig 16b, values on -log scale, read-out: ABS - Dd2-2D4 (converted)): 90.6 nM
ABS growth dose-response, normalized signal (Replicates 1-3) ([1]; Log[inhibitor] (M) -5.000): 8 and 7 and 3
ABS growth dose-response, normalized signal (Replicates 1-3) ([1]; Log[inhibitor] (M) -5.301): 22 and 9 and 15
ABS growth dose-response, normalized signal (Replicates 1-3) ([1]; Log[inhibitor] (M) -5.602): 34 and 37 and 32
ABS growth dose-response, normalized signal (Replicates 1-3) ([1]; Log[inhibitor] (M) -5.903): 93 and 89 and 84
ABS growth dose-response, normalized signal (Replicates 1-3) ([1]; Log[inhibitor] (M) -6.204): 92 and 98 and 96
ABS growth dose-response, normalized signal (Replicates 1-3) ([1]; Log[inhibitor] (M) -6.505): 98 and 96 and 105
ABS growth dose-response, normalized signal (Replicates 1-3) ([1]; Log[inhibitor] (M) -6.806): 103 (2×) and 107
ABS growth dose-response, normalized signal (Replicates 1-3) ([1]; Log[inhibitor] (M) -7.107): 109 (2×) and 104
ABS growth dose-response, normalized signal (Replicates 1-3) ([1]; Log[inhibitor] (M) -7.408): 106 and 107 and 102
ABS growth dose-response, normalized signal (Replicates 1-3) ([1]; Log[inhibitor] (M) -7.709): 107 and 106 and 101
ABS growth dose-response, normalized signal (Replicates 1-3) ([1]; Log[inhibitor] (M) -8.010): 100 and 99 and 106
ABS growth dose-response, normalized signal (Replicates 1-3) ([1]; Log[inhibitor] (M) -8.311): 109 and 100 and 99
ABS growth dose-response, normalized signal (Replicates 1-3) ([2]; Log[inhibitor] (M) -5.000): 7 (2×) and 6
ABS growth dose-response, normalized signal (Replicates 1-3) ([2]; Log[inhibitor] (M) -5.301): 18 and 21 and 24
ABS growth dose-response, normalized signal (Replicates 1-3) ([2]; Log[inhibitor] (M) -5.602): 51 and 50 and 48
ABS growth dose-response, normalized signal (Replicates 1-3) ([2]; Log[inhibitor] (M) -5.903): 103 and 100 and 102
ABS growth dose-response, normalized signal (Replicates 1-3) ([2]; Log[inhibitor] (M) -6.204): 99 and 103 and 101
ABS growth dose-response, normalized signal (Replicates 1-3) ([2]; Log[inhibitor] (M) -6.505): 106 and 103 and 101
ABS growth dose-response, normalized signal (Replicates 1-3) ([2]; Log[inhibitor] (M) -6.806): 100 and 103 and 108
ABS growth dose-response, normalized signal (Replicates 1-3) ([2]; Log[inhibitor] (M) -7.107): 110 and 105 and 104
ABS growth dose-response, normalized signal (Replicates 1-3) ([2]; Log[inhibitor] (M) -7.408): 103 and 110 and 105
ABS growth dose-response, normalized signal (Replicates 1-3) ([2]; Log[inhibitor] (M) -7.709): 107 and 102 and 105
ABS growth dose-response, normalized signal (Replicates 1-3) ([2]; Log[inhibitor] (M) -8.010): 102 and 103 and 101
ABS growth dose-response, normalized signal (Replicates 1-3) ([2]; Log[inhibitor] (M) -8.311): 104 (2×) and 102
dose-response signal (normalized), SI Fig 8 (PfcProRS; Log[inhibitor] (M) -5.000): 9.23E-03 and -2.50E-03 and -6.65E-02
dose-response signal (normalized), SI Fig 8 (PfcProRS; Log[inhibitor] (M) -5.301): -5.43E-02 and 1.65E-02 and -1.76E-02
dose-response signal (normalized), SI Fig 8 (PfcProRS; Log[inhibitor] (M) -5.601): 6.03E-02 and 2.26E-02 and 5.28E-02
dose-response signal (normalized), SI Fig 8 (PfcProRS; Log[inhibitor] (M) -5.904): 2.65E-02 and 5.41E-02 and 9.36E-02
dose-response signal (normalized), SI Fig 8 (PfcProRS; Log[inhibitor] (M) -6.208): 2.38E-02 and 1.39E-01 and 9.30E-02
dose-response signal (normalized), SI Fig 8 (PfcProRS; Log[inhibitor] (M) -6.509): 2.08E-01 and 1.27E-01 and 1.08E-01
dose-response signal (normalized), SI Fig 8 (PfcProRS; Log[inhibitor] (M) -6.796): 2.54E-01 and 2.41E-01 and 3.20E-01
dose-response signal (normalized), SI Fig 8 (PfcProRS; Log[inhibitor] (M) -7.108): 4.18E-01 and 3.78E-01 and 4.14E-01
dose-response signal (normalized), SI Fig 8 (PfcProRS; Log[inhibitor] (M) -7.409): 5.88E-01 and 6.84E-01 and 5.75E-01
dose-response signal (normalized), SI Fig 8 (PfcProRS; Log[inhibitor] (M) -7.710): 7.68E-01 and 7.32E-01 and 7.90E-01
dose-response signal (normalized), SI Fig 8 (PfcProRS; Log[inhibitor] (M) -8.000): 9.75E-01 and 1.04E+00 and 8.35E-01
dose-response signal (normalized), SI Fig 8 (PfcProRS; Log[inhibitor] (M) -8.301): 9.24E-01 and 9.28E-01 and 8.42E-01
dose-response signal (normalized), SI Fig 8 (PfcProRS; Log[inhibitor] (M) -8.602): 1.04E+00 and 8.85E-01 and 9.51E-01
dose-response signal (normalized), SI Fig 8 (PfcProRS; Log[inhibitor] (M) -9.000): 1.00E+00 and 1.08E+00 and 9.49E-01
dose-response signal (normalized), SI Fig 8 (PfcProRS; Log[inhibitor] (M) -9.301): 9.78E-01 and 9.98E-01 and 9.79E-01
PfcProRS -- best Kd (PfcProRS; SI Fig 16a, values on -log scale): 7.883
Kd (PfcProRS; read-out: PfcProRS (KD [nM]) + proline): 13.2 nM
Kd (HsProRS; HsProRS (KD [nM]) + proline, 100 μM proline, 250 nM MAT379): 34.8 nM
Kd (HsProRS; HsProRS - best Kd, SI Fig 16a, values on -log scale): 22.1 nM
normalized TR-FRET ligand displacement signal, dose-response replicates (SI Fig 6) (HsProRS; Log[inhibitor] (M) -5.000): -1.10E-01 and -3.98E-02 and -5.51E-02
TR-FRET dose-response, normalized signal (SI Fig 11) (HsProRS; Log[inhibitor] (M) -5.000): 5.88E-02 and 4.63E-03 and 1.20E-02
normalized TR-FRET ligand displacement signal, dose-response replicates (SI Fig 6) (HsProRS; Log[inhibitor] (M) -5.301): -3.29E-02 and -2.98E-02 and -2.55E-02
TR-FRET dose-response, normalized signal (SI Fig 11) (HsProRS; Log[inhibitor] (M) -5.301): 8.22E-04 and 1.04E-02 and 2.94E-02
normalized TR-FRET ligand displacement signal, dose-response replicates (SI Fig 6) (HsProRS; Log[inhibitor] (M) -5.601): -4.70E-04 and 4.94E-02 and -1.17E-02
TR-FRET dose-response, normalized signal (SI Fig 11) (HsProRS; Log[inhibitor] (M) -5.601): 2.44E-02 and 7.65E-03 and 4.65E-02
normalized TR-FRET ligand displacement signal, dose-response replicates (SI Fig 6) (HsProRS; Log[inhibitor] (M) -5.904): -2.26E-02 and 7.29E-03 and -6.02E-02
TR-FRET dose-response, normalized signal (SI Fig 11) (HsProRS; Log[inhibitor] (M) -5.904): 5.49E-02 and 5.79E-02 and 5.68E-02
normalized TR-FRET ligand displacement signal, dose-response replicates (SI Fig 6) (HsProRS; Log[inhibitor] (M) -6.208): 5.82E-02 and 7.95E-02 and 2.06E-02
TR-FRET dose-response, normalized signal (SI Fig 11) (HsProRS; Log[inhibitor] (M) -6.208): 4.71E-02 and 4.91E-02 and 7.38E-02
normalized TR-FRET ligand displacement signal, dose-response replicates (SI Fig 6) (HsProRS; Log[inhibitor] (M) -6.509): 1.24E-02 and 1.36E-01 and 1.19E-01
TR-FRET dose-response, normalized signal (SI Fig 11) (HsProRS; Log[inhibitor] (M) -6.509): 1.27E-01 and 1.07E-01 and 8.54E-02
normalized TR-FRET ligand displacement signal, dose-response replicates (SI Fig 6) (HsProRS; Log[inhibitor] (M) -6.796): 2.14E-01 and 2.70E-01 and 2.50E-01
TR-FRET dose-response, normalized signal (SI Fig 11) (HsProRS; Log[inhibitor] (M) -6.796): 1.74E-01 and 1.79E-01 and 1.50E-01
normalized TR-FRET ligand displacement signal, dose-response replicates (SI Fig 6) (HsProRS; Log[inhibitor] (M) -7.108): 3.41E-01 and 3.62E-01 and 3.83E-01
TR-FRET dose-response, normalized signal (SI Fig 11) (HsProRS; Log[inhibitor] (M) -7.108): 2.66E-01 and 2.89E-01 and 3.00E-01
normalized TR-FRET ligand displacement signal, dose-response replicates (SI Fig 6) (HsProRS; Log[inhibitor] (M) -7.409): 5.14E-01 and 5.24E-01 and 5.91E-01
TR-FRET dose-response, normalized signal (SI Fig 11) (HsProRS; Log[inhibitor] (M) -7.409): 4.26E-01 and 3.87E-01 and 4.16E-01
normalized TR-FRET ligand displacement signal, dose-response replicates (SI Fig 6) (HsProRS; Log[inhibitor] (M) -7.710): 7.15E-01 and 7.22E-01 and 6.26E-01
TR-FRET dose-response, normalized signal (SI Fig 11) (HsProRS; Log[inhibitor] (M) -7.710): 5.82E-01 and 5.49E-01 and 5.55E-01
normalized TR-FRET ligand displacement signal, dose-response replicates (SI Fig 6) (HsProRS; Log[inhibitor] (M) -8.000): 9.10E-01 and 9.20E-01 and 8.83E-01
TR-FRET dose-response, normalized signal (SI Fig 11) (HsProRS; Log[inhibitor] (M) -8.000): 7.19E-01 and 6.97E-01 and 7.02E-01
normalized TR-FRET ligand displacement signal, dose-response replicates (SI Fig 6) (HsProRS; Log[inhibitor] (M) -8.301): 9.29E-01 and 8.45E-01 and 8.62E-01
TR-FRET dose-response, normalized signal (SI Fig 11) (HsProRS; Log[inhibitor] (M) -8.301): 8.41E-01 and 8.30E-01 and 7.96E-01
normalized TR-FRET ligand displacement signal, dose-response replicates (SI Fig 6) (HsProRS; Log[inhibitor] (M) -8.602): 1.00E+00 and 9.03E-01 and 8.98E-01
TR-FRET dose-response, normalized signal (SI Fig 11) (HsProRS; Log[inhibitor] (M) -8.602): 8.68E-01 and 8.38E-01 and 8.61E-01
normalized TR-FRET ligand displacement signal, dose-response replicates (SI Fig 6) (HsProRS; Log[inhibitor] (M) -9.000): 9.68E-01 and 8.42E-01 and 9.66E-01
TR-FRET dose-response, normalized signal (SI Fig 11) (HsProRS; Log[inhibitor] (M) -9.000): 9.12E-01 and 9.38E-01 and 9.42E-01
normalized TR-FRET ligand displacement signal, dose-response replicates (SI Fig 6) (HsProRS; Log[inhibitor] (M) -9.301): 9.89E-01 and 9.63E-01 and 1.01E+00
TR-FRET dose-response, normalized signal (SI Fig 11) (HsProRS; Log[inhibitor] (M) -9.301): 9.41E-01 and 9.42E-01 and 9.34E-01
